In ChEMBL document CHEMBL3608211, “Exploration of Pharmacophore in Chrysosplenol C as Activator in Ventricular Myocyte Contraction” (ACS Med Chem Lett, 2015):
Values after ≈ are worked out from the molar mass of the structure shown. Active and inactive are the calls of the source. The calls are words filed in the database; no cut-off is given here.

Assays:
Bos taurus = organism: Bos taurus; assay: Activation of cardiac myosin S1 ATPase in bovine sarcomere at 10 uM by spectrophometric analysis in presence of actin thin filament complex relative to control
[1] = Positive inotropic effect in Sprague-Dawley rat ventricular myocytes assessed as change in ventricular cell contractility at 50 uM by video edge detector relative to control; format: functional, Ventricular myocyte
Oryctolagus cuniculus = organism: Oryctolagus cuniculus; assay: Activation of skeletal myosin S1 ATPase in rabbit psoas muscle at 10 uM in presence of actin thin filament complex; format: tissue-based
Gallus gallus = organism: Gallus gallus; assay: Activation of smooth myosin S1 ATPase in chicken gizzard at 10 uM in presence of actin thin filament complex
[2] = Positive inotropic effect in Sprague-Dawley rat ventricular myocytes assessed as change in ventricular cell contractility at 10 uM by video edge detector relative to control; format: functional, Ventricular myocyte
[3] = Positive inotropic effect in Sprague-Dawley rat ventricular myocytes assessed as change in ventricular cell contractility at 400 nM by video edge detector relative to control; format: functional, Ventricular myocyte
[4] = Positive inotropic effect in Sprague-Dawley rat ventricular myocytes assessed as change in ventricular cell contractility at 1 uM by video edge detector relative to control; format: functional, Ventricular myocyte
[5] = Solubility of the compound in DMSO/tyrode solution; format: physicochemical

Activity (Bos taurus) [%] | Activity (Oryctolagus cuniculus) | Activity (Gallus gallus) | solubility [5] [µg/mL] | Structure (SMILES) | Activity [1] [%] | Activity [2] [%] | Activity [3] [%] | Activity [4] [%]
36.4 | inactive | inactive | – | COc1cc(-c2oc3cc(Cl)ccc3c(=O)c2OC)ccc1O | 41.8 | 43.9 | – | –
– | – | – | – | COc1cc(/C=C/C(=O)c2ccc(Cl)cc2O)ccc1O | 0 | 0 | – | –
– | – | – | – | COc1ccc2c(=O)c(OC)c(-c3ccc(Cl)cc3)oc2c1 | 0 | 0 | – | –
– | – | – | – | COc1c(-c2ccc(Cl)cc2)oc2cc(Cl)ccc2c1=O | 0 | 0 | – | –
– | – | – | – | O=c1c(O)c(-c2ccc(O)cc2)oc2cc(Cl)ccc12 | 11 | 0 | – | –
– | – | – | – | COc1cc(-c2oc3ccccc3c(=O)c2O)ccc1O | 10.3 | 10.5 | – | –
– | – | – | – | COc1cc(-c2oc3cccc(O)c3c(=O)c2O)ccc1O | 0 | 0 | – | –
– | – | – | – | COc1ccc(-c2oc3cc(OC)c(OC)c(O)c3c(=O)c2OC)cc1OC [ARTEMETIN] | 21.6 | 8.7 | – | –
80.4 | – | – | – | COC(=O)N1CCN(Cc2cccc(NC(=O)Nc3ccc(C)nc3)c2F)CC1 [OMECAMTIV MECARBIL] | – | – | 59.3 | 33.8
– | – | – | – | COc1cc(-c2cc(=O)c3ccc(Cl)cc3o2)ccc1O | 0 | 0 | – | –
– | – | – | – | COc1cc(-c2oc3ccc(O)cc3c(=O)c2OC)ccc1O | 9.3 | 3.9 | – | –
– | – | – | – | COc1cccc(-c2oc3cc(Cl)ccc3c(=O)c2OC)c1 | 23.6 | 16.6 | – | –
– | – | – | – | COc1cc(-c2oc3ccccc3c(=O)c2OC)ccc1O | 44.9 | 30.5 | – | –
28.9 | inactive | inactive | – | COc1c(-c2ccc(O)cc2)oc2cc(Cl)ccc2c1=O | 62.1 | 49.6 | – | –
– | – | – | – | COc1cccc(-c2oc3cc(Cl)ccc3c(=O)c2O)c1 | 0 | 0 | – | –
0 | – | – | – | COc1ccc2c(=O)c(O)c(-c3ccc(O)c(OC)c3)oc2c1 | 3.98 | 8.17 | – | –
– | – | – | – | COc1cc(-c2oc3ccc(O)cc3c(=O)c2O)ccc1O | 0 | 0 | – | –
0 | – | – | – | COc1cc(-c2oc3cccc(O)c3c(=O)c2OC)ccc1O | 12.3 | 4.2 | – | –
– | – | – | – | COc1ccc2c(=O)c(O)c(-c3ccc(O)cc3)oc2c1 | 23.1 | 8.87 | – | –
30.9 | inactive | inactive | – | COc1ccc2c(=O)c(OC)c(-c3ccc(O)cc3)oc2c1 | 38.6 | 42.1 | – | –
– | – | – | – | COc1cc(-c2oc3cc(Cl)ccc3c(=O)c2O)ccc1O | 57.3 | 23.5 | – | –
38.7 | inactive | inactive | – | COc1c(-c2cccc(O)c2)oc2cc(Cl)ccc2c1=O | 53.9 | 54.8 | – | –
28.1 | inactive | inactive | 14.1 (≈ 39.1 µM) | COc1cc(-c2oc3cc(OC)c(O)c(O)c3c(=O)c2OC)ccc1O [CHRYSOSPLENOL C] | 53 | 16.6 | – | –
33.7 | inactive | inactive | 17.1 (≈ 52 µM) | COc1ccc2c(=O)c(OC)c(-c3ccc(O)c(OC)c3)oc2c1 | 45.3 | 60.7 | – | –
